The text below walks through data of US8338450B2, “Compounds as dipeptidyl peptidase IV (DPP IV) inhibitors” (Lupin Limited, priority 2007, dated 2012).

One may read the IC50 as the concentration at which inhibition is half-maximal. What is called inhibition is the drop in the measured response relative to a control, in per cent.

Structures can show the parent of a compound that is named as a salt.

In one test the target is T1, human recombinant DPP-IV (Homo sapiens, UniProt P27487).
T1 construct: purchased R&D Systems, USA (or produced in-house)
T1 sequence (P27487 whole entry): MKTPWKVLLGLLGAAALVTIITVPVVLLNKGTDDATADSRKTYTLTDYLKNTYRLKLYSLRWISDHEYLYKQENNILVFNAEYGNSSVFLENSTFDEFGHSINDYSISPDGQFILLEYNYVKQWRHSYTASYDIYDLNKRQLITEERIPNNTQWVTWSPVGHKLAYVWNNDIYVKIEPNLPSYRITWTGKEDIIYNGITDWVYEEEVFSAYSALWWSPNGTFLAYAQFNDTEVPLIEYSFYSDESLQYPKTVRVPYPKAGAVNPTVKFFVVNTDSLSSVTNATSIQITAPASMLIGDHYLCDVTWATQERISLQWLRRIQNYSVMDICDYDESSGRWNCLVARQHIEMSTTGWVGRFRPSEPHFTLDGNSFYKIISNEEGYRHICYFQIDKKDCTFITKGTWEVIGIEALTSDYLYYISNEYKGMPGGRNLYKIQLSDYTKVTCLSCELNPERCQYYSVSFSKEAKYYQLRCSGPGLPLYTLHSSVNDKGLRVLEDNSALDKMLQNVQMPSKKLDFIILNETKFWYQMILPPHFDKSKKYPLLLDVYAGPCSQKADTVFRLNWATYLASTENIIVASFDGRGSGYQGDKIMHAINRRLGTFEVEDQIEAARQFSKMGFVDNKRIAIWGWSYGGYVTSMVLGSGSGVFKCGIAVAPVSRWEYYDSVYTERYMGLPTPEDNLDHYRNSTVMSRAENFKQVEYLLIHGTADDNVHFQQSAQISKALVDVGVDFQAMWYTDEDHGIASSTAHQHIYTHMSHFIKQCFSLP
Nature of the test: Inhibition of human recombinant DPP-IV (Gly-Pro-AMC hydrolysis, fluorometric). Format: biochemical. The conditions noted are these: compound 10 nM; relative to vehicle controls. Here is the method: Inhibition of Human Recombinant DPP-IV
The proteolytic activity of human recombinant DPP-IV was determined by following the hydrolysis of Gly-Pro-7-amino-4-methylcoumarin (Gly-Pro-AMC) and the fluorometric quantitation of the liberated AMC. Assays were routinely carried out in 96-well flat-bottom black microwell plates. The reaction mixture (100 μl) contained 10 ng of human recombinant DPP-IV enzyme (produced in-house or procured from R&D Systems, USA) in the assay buffer (25 mM Tris-HCl, pH 7.4, 140 mM NaCl, 10 mM KCl and 0.1 mg/ml BSA) and 50 μM Gly-Pro-AMC. After incubation of assay plates at 30° C. for 30 min, the hydrolysis of Gly-Pro-AMC was monitored in a fluorescence microplate reader (Molecular Devices SpectraMax M5), with excitation and emission wavelengths set at 360 nm and 460 nm, respectively.
The inhibition of DPP-IV activity by test compounds was routinely performed by preincubating the enzyme with test compound (10 and 100 nM for primary screening and 8 concentrations from 0.1 to 1000 nM for the dose-response study) or vehicle (0.01% DMSO) for 15 min at 30° C., in a total volume of 90 μl. Test compounds were dissolved in DMSO at a concentration of 10 mM and serially diluted further in assay buffer. The enzyme reaction was initiated by the addition of Gly-Pro-AMC, followed by incubation of assay plates for 30 min at 30° C. and the liberated AMC was measured as described above. A known inhibitor of DPP-IV (positive control) was always included in the assay. Test compounds at various concentrations were always evaluated in duplicate, along with substrate blanks, vehicle controls and positive controls.
The results are expressed as percent inhibition of the enzyme activity relative to vehicle controls. Dose-response studies were conducted for those compounds exerting ≧50% inhibition of activity at 10 nM in primary screening. IC50, defined as the inhibitor concentration which caused a 50% decrease of the activity under assay conditions, was computed using GraphPad Prism software, version 5.0.
The DPP-IV inhibition data (expressed either as IC50 in nanomolar or percent inhibition at a particular compound concentration) is presented in Table 1.
With `N#Cc1ccc(N2C3CCC2CC([C@H](N)C(=O)N2[C@H](C#N)C[C@@H]4C[C@@H]42)C3)cc1.O=C(O)C(F)(F)F` (stereo partly drawn) [Compound 52, (1S,3S,5S)-2-{(2S)-2-Amino-2-[8-(4-cyano-phenyl)-8-aza-bicyclo[3.2.1]oct-3-yl]-exo-ethanoyl}-2-azabicyclo[3.1.0]hexane-3-carbonitrile trifluoro acetic acid salt], the “% inhibition at 10 nM” value is reported as 25% inhibition at 10 nM.

As to `N#C[C@H]1C[C@H]2C[C@H]2N1C(=O)[C@@H](N)C1CC2CCC(C1)N2C(=O)c1ccnc(F)c1.O=C(O)C(F)(F)F` (stereo partly drawn) [Compound 29, (1R,3R,5R)-2-{(2S)-2-Amino-2-[8-(2-fluoropyridine-4-carbonyl)-8-aza-bicyclo[3.2.1]oct-3-yl]-exo-ethanoyl}-2-azabicyclo[3.1.0]hexane-3-carbonitrile trifluoroacetic acid salt], the “% inhibition at 10 nM” value was determined as 0% inhibition at 10 nM.

For `CCC(CC)N1C2CCC1CC([C@H](N)C(=O)N1[C@H](C#N)C[C@@H]3C[C@@H]31)C2.O=C(O)C(F)(F)F` (stereo partly drawn) [Compound 59, (1S,3S,5S)-2-{(2S)-2-Amino-2-[8-(1-ethyl-propyl)-8-aza-bicyclo[3.2.1]oct-3-yl]-exo-ethanoyl}-2-azabicyclo[3.1.0]hexane-3-carbonitrile trifluoroacetic acid salt], the “% inhibition at 10 nM” value came to 34% inhibition at 10 nM.

`N#C[C@@H]1C[C@@H]2C[C@@H]2N1C(=O)[C@@H](N)C1CC2CCC(C1)N2CCOCc1ccccc1.O=C(O)C(F)(F)F` (stereo partly drawn) [Compound 50, (1S,3S,5S)-2-{(2S)-2-Amino-2-[8-(benzyloxy-ethyl)-8-aza-bicyclo[3.2.1]oct-3-yl]-exo-ethanoyl}-2-azabicyclo[3.1.0]hexane-3-carbonitrile trifluoroacetic acid salt]: the “% inhibition at 10 nM” value came out at 21% inhibition at 10 nM.

For `N#C[C@@H]1C[C@@H]2C[C@@H]2N1C(=O)[C@@H](N)C1CC2CCC(C1)N2C(=O)c1ccco1.O=C(O)C(F)(F)F` (stereo partly drawn) [Compound 40, (1S,3S,5S)-2-{(2S)-2-Amino-2-[8-(furan-2-carbonyl)-8-aza-bicyclo[3.2.1]oct-3-yl]-exo-ethanoyl}-2-azabicyclo[3.1.0]hexane-3-carbonitrile trifluoroacetic acid salt], the “% inhibition at 10 nM” value stood at 44% inhibition at 10 nM.

Consider `N#C[C@H]1C[C@H]2C[C@H]2N1C(=O)[C@H](N)C1CC2CCC(C1)N2C(=O)c1ccnc(F)c1.O=C(O)C(F)(F)F` (stereo partly drawn) [Compound 30, (1R,3R,5R)-2-{(2R)-2-Amino-2-[8-(2-fluoropyridine-4-carbonyl)-8-aza-bicyclo[3.2.1]oct-3-yl]-exo-ethanoyl}-2-azabicyclo[3.1.0]hexane-3-carbonitrile trifluoroacetic acid salt], for which the “% inhibition at 10 nM” value stood at 0% inhibition at 10 nM.

For the molecule `N#C[C@@H]1C[C@@H]2C[C@@H]2N1C(=O)[C@H](N)C1CC2CCC(C1)N2C(=O)c1cnccn1.O=C(O)C(F)(F)F` (stereo partly drawn) [Compound 36, (1S,3S,5S)-2-{(2R)-2-Amino-2-[8-(pyrazine-2-carbonyl)-8-aza-bicyclo[3.2.1]oct-3-yl]-exo-ethanoyl}-2-azabicyclo[3.1.0]hexane-3-carbonitrile trifluoroacetic acid salt], the “% inhibition at 10 nM” value turned out to be 17% inhibition at 10 nM.

Regarding `N#C[C@@H]1C[C@@H]2C[C@@H]2N1C(=O)[C@@H](N)C1CC2CCC(C1)N2C1CCCCC1.O=C(O)C(F)(F)F` (stereo partly drawn) [Compound 60, (1S,3S,5S)-2-{(2S)-2-Amino-2-(8-cyclohexyl-8-aza-bicyclo[3.2.1]oct-3-yl)-exo-ethanoyl}-2-azabicyclo[3.1.0]hexane-3-carbonitrile trifluoroacetic acid salt], the “% inhibition at 10 nM” value was found to be 10% inhibition at 10 nM.

As to `N#C[C@@H]1C[C@@H]2C[C@@H]2N1C(=O)[C@H](N)C1CC2CCC(C1)N2C(=O)c1ccnc(F)c1.O=C(O)C(F)(F)F` (stereo partly drawn) [Compound 31, (1S,3S,5S)-2-{(2R)-2-Amino-2-[8-(2-fluoropyridine-4-carbonyl)-8-aza-bicyclo[3.2.1]oct-3-yl]-exo-ethanoyl}-2-azabicyclo[3.1.0]hexane-3-carbonitrile trifluoroacetic acid salt], the “% inhibition at 10 nM” value was 6% inhibition at 10 nM.

Still in this test, the particulars now being: human recombinant DPP-IV, 50 μM Gly-Pro-AMC, 30 min at 30° C.
As for `N#C[C@@H]1C[C@@H]2C[C@@H]2N1C(=O)[C@@H](N)C1CC2CCC(C1)N2C(=O)c1cc(F)ccc1F` (stereo partly drawn) [Compound 27, (1S,3S,5S)-2-{(2S)-2-Amino-2-[8-(2,5-difluorobenzoyl)-8-aza-bicyclo[3.2.1]oct-3-yl]-exo-ethanoyl}-2-azabicyclo[3.1.0]hexane-3-carbonitrile trifluoroacetic acid salt], the IC50 was 17.2 nM.

As for `C#C[C@H]1CC[C@@H](C#N)N1C(=O)[C@@H](N)C1CC2CCC(C1)N2C(=O)c1ccc(C(F)(F)F)cc1` (stereo partly drawn) [Compound 63, (2S,5R)-1-{(2S)-2-Amino-2-[8-(4-trifluoromethyl-benzoyl)-8-aza-bicyclo[3.2.1]oct-3-yl]-exo-ethanoyl}-5-ethynyl-pyrrolidin-2-carbonitrile trifluoro acetic acid salt], the IC50 was found to be 15.5 nM.

As for `N#C[C@@H]1C[C@@H]2C[C@@H]2N1C(=O)[C@@H](N)C1CC2CCC(C1)N2C(=O)Cc1ccncc1` (stereo partly drawn) [Compound 54, (1S,3S,5S)-2-{(2S)-2-Amino-2-[8-(2-pyridin-4-yl-acetyl)-8-aza-bicyclo[3.2.1]oct-3-yl]-exo-ethanoyl}-2-azabicyclo[3.1.0]hexane-3-carbonitrile di trifluoroacetic acid salt], the IC50 was 3.3 nM.

Turning to `CS(=O)(=O)c1ccc(N2C3CCC2CC([C@H](N)C(=O)N2[C@H](C#N)C[C@@H]4C[C@@H]42)C3)cc1` (stereo partly drawn) [Compound 53, (1S,3S,5S)-2-{(2S)-2-Amino-2-[8-(4-methanesulfonylphenyl)-8-aza-bicyclo[3.2.1]oct-3-yl]-exo-ethanoyl}-2-azabicyclo[3.1.0]hexane-3-carbonitrile trifluoroacetic acid salt], the 50% inhibitory concentration (IC50) was determined as 19.7 nM.

Take `N#C[C@@H]1C[C@@H]2C[C@@H]2N1C(=O)[C@@H](N)C1CC2CCC(C1)N2C(=O)c1cc(F)c(F)cc1F` (stereo partly drawn) [Compound 23, (1S,3S,5S)-2-{(2S)-2-Amino-2-[8-(2,4,5-trifluorobenzoyl)-8-aza-bicyclo[3.2.1]oct-3-yl]-exo-ethanoyl}-2-azabicyclo[3.1.0]hexane-3-carbonitrile trifluoroacetic acid salt]: the IC50 is 9.75 nM.

With `N#C[C@@H]1CCCN1C(=O)[C@@H](N)C1CC2CCC(C1)N2C(=O)Nc1ccc(C(F)(F)F)cc1` (stereo partly drawn) [Compound 22, (2S)-1-{(2S)-2-Amino-2-[8-(4-trifluoromethylphenylcarbamoyl)-8-aza-bicyclo[3.2.1]oct-3-yl]exo-ethanoyl}-pyrrolidin-2-carbonitrile trifluoroacetic acid salt], the IC50 came out at 2.83 nM.

As for `N#C[C@@H]1CCCN1C(=O)[C@@H](N)C1CC2CCC(C1)N2Cc1cc(F)c(F)cc1F` (stereo partly drawn) [Compound 9, (2S)-1-{(2S)-2-Amino-2-[8-(2,4,5-trifluorobenzyl)-8-aza-bicyclo[3.2.1]oct-3-yl]-exo-ethanoyl}-pyrrolidin-2-carbonitrile trifluoroacetic acid salt], the half-inhibitory concentration (IC50) came out at 3.13 nM.

For `N#C[C@@H]1C[C@H](F)CN1C(=O)[C@@H](N)C1CC2CCC(C1)N2Cc1cc(F)c(F)cc1F` (stereo partly drawn) [Compound 19, (2S,4S)-1-{(2S)-2-Amino-2-[8-(2,4,5-trifluorobenzyl)-8-aza-bicyclo[3.2.1]oct-3-yl]-exo-ethanoyl}-4-fluoro-pyrrolidin-2-carbonitrile trifluoroacetic acid salt], the IC50 turned out to be 6.25 nM.

The same test, now with this note: read-out: % inhibition at 1000 nM.
Regarding `N[C@H](C(=O)N1CCC[C@H]1C(=O)O)C1CC2CCC(C1)N2C(=O)c1ccc(C(F)(F)F)cc1` (stereo partly drawn) [Compound 11, (2S)-1-{(2S)-2-amino-2-[8-(4-trifluoromethyl-benzoyl)-8-aza-bicyclo[3.2.1]-oct-3-yl]-exo-ethanoyl}-pyrrolidin-2-carboxylic acid trifluoroacetic acid salt], the inhibition at 1 µM was 29%.

On to `NC(=O)[C@@H]1C[C@@H]2C[C@@H]2N1C(=O)[C@@H](N)C1CC2CCC(C1)N2C(=O)c1ccc2c(c1)OCO2` (stereo partly drawn) [Compound 45, (1S,3S,5S)-2-{(2S)-2-Amino-2-[8-(benzo-[1,3]dioxole-5-carbonyl)-8-aza-bicyclo[3.2.1]oct-3-yl]-exo-ethanoyl}-2-azabicyclo[3.1.0]-hexane-3-carboxamide trifluoro acetic acid salt], for which the inhibition at 1 µM stood at 12%.
